Results reported in patent publication US9284298B2, “Pyrazolyl-pyrimidine derivatives as kinase inhibitors” (NERVIANO MEDICAL SCIENCES S.R.L., priority 2011, dated 2016).
Structures can show the parent of a compound that is named as a salt.

Key:
MPS1 = MPS1 (Homo sapiens (Human), UniProt P33981); assay: Biochemical assay for inhibitors of MPS1 kinase activity (trans-phosphorylation, Dowex); conditions: 15 μM ATP, P38-tide substrate
Text: Cloning, Expression and Purification of Recombinant MPS1 Full Length Protein.
MPS1 full length (corresponding to residues 2-857 of the full length sequence, see Swiss-Prot accession number P33981) was PCR amplified from the full-length human MPS1 gene present in house as clone pGEX4t_MPS1.
Baculoviruses were generated by cotransfecting Sf9 insect cells with the expression vector and the viral DNA using the BaculoGold® transfection kit (Pharmingen). Viral supernatant was recovered after 5 days and subjected to 3 rounds of amplification to increase viral titer. Recombinant protein was produced by infecting High5 insect cells. After 72 h of infection at 21° C., cells were recovered, pelletted and freezed at −80° C. For purification of recombinant protein, pellet was thawed, resuspended in lysis buffer (PBS, NaCl 150 mM, Glycerol 10%, CHAPS 0.1%, DTT 20 mM, protease and phosphatase inhibitors) and lysed by Gaulin. Lysate was cleared by centrifugation and loaded on a GST affinity column. After extensive wash, recombinant protein was cleaved by a specific protease and eluted by incubation.
To get a fully activated enzyme, the protein was then subjected to auto-phosphorylation in presence of ATP 1 mM at 25° C. for 2 h in kinase buffer (Hepes pH 7.5 50 mM, MgCl2 2.5 mM, MnCl2 1 mM, DTT 1 mM, phosphatase inhibitors); ATP was then removed with a desalting column.
Biochemical Assay for Inhibitors of MPS1 Kinase Activity The inhibitory activity of putative kinase inhibitors and the potency of selected compounds were determined using a trans-phosphorylation assay.
(§1) Specific peptide or protein substrates are trans-phosphorylated by their specific ser-thr or tyr kinase in the presence of ATP traced with ^33P-γ-ATP, and in the presence of their own optimal buffer and cofactors.
(§2) At the end of the phosphorylation reaction, more than 98% unlabeled ATP and radioactive ATP is captured by an excess of the ion exchange dowex resin; the resin then settles down to the bottom of the reaction plate by gravity.
(§3) Supernatant is subsequently withdrawn and transferred into a counting plate, then evaluated by β-counting.
The buffer for MPS1 assay was composed of HEPES 50 mM, at pH 7.5, with 2.5 mM MgCl2, 1 mM MnCl2, 1 mM DTT, 3 μM Na3VO4, 2 mM β-glycerophosphate and 0.2 mg/mL BSA.
The assay was run with a final concentration MPS1 of 5 nM, in the presence of 15 μM ATP and 1.5 nM ^33P-γ-ATP; the substrate was P38-tide, used at 200 μM.
Test compounds are received as a 1 mM solution in 100% DMSO, distributed into 96 or 384 well plates: • a) for percent inhibition studies (HTS), individual dilution plates at 1 mM are diluted at a 3× concentration (30 μM) in ddH2O (3% DMSO=final concentration) using a Beckman NX automated pipetting platform. […]

PIM1 = PIM1 (Homo sapiens (Human), UniProt P11309); assay: Biochemical assay for inhibitors of PIM1 kinase activity (trans-phosphorylation, Dowex); conditions: 200 μM ATP, Aktide substrate
PIM1, sequence (P11309 whole entry): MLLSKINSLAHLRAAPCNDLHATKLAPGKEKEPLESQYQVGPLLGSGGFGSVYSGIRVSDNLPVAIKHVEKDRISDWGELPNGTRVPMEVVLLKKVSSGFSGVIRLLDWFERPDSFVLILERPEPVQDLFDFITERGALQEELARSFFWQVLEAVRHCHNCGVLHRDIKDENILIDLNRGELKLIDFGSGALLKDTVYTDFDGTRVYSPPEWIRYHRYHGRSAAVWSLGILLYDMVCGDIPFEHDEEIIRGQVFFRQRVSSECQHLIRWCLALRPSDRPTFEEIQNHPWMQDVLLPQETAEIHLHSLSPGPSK
Experimental: The short forms and abbreviations used herein have the following meaning: • Ci Curie • DMSO dimethylsulfoxide • KDa kiloDalton • microCi microCurie • mg milligram • microg microgram • ng nanogram • L liter • mL milliliter • μL microliter • M molar • mM millimolar • μM micromolar • nM nanomolar Biochemical Assay for Inhibitors of PIM1 Kinase Activity
The inhibitory activity of putative kinase inhibitors and the potency of selected compounds were determined using a trans-phosphorylation assay.
as §1, §2, §3
The buffer for PIM1 assay was composed of HEPES 50 mM, at pH 7.5, with 10 mM MgCl2, 1 mM DTT, 3 μM NaVO3, and 0.2 mg/mL BSA. […]
Data are analyzed by an internally customized version of the “Assay Explorer” SW package, which provides sigmoidal fitting of the ten-dilution curves for IC50 determination in secondary assay/hit confirmation routines.

PIM2 = PIM2 (Homo sapiens (Human), UniProt Q9P1W9); assay: PIM2 kinase inhibition assay: Dowex technique; type: biochemical; conditions: 4 μM ATP, Aktide substrate
PIM2, sequence (Q9P1W9 whole entry): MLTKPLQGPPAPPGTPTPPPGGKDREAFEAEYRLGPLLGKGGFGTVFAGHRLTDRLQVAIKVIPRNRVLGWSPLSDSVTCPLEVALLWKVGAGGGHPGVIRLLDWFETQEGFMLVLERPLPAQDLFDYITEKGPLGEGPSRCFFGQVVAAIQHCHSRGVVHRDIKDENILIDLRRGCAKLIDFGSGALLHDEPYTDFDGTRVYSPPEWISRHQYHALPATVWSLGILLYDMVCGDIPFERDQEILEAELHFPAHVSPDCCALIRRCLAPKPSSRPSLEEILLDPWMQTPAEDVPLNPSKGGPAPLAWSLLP
Experimental: Method for PIM2 Kinase Inhibition Assay: Dowex Technique
The buffer for PIM2 assay was composed of HEPES 50 mM, at pH 7.5, with 1 mM MgCl2, 1 mM DTT, 3 μM Na3VO4, and 0.2 mg/mL BSA.
Full-length human PIM2 was expressed and purified as described in Fedorov O, et al., PNAS 2007 104, 51, 20523-28.
Enzyme concentration=1.5 nM
Aktide substrate (Chemical Abstract Service Registry Number 324029-01-8)=5 μM
See above: same procedure as described for PIM1.

MPS1, sequence (P33981 2-857): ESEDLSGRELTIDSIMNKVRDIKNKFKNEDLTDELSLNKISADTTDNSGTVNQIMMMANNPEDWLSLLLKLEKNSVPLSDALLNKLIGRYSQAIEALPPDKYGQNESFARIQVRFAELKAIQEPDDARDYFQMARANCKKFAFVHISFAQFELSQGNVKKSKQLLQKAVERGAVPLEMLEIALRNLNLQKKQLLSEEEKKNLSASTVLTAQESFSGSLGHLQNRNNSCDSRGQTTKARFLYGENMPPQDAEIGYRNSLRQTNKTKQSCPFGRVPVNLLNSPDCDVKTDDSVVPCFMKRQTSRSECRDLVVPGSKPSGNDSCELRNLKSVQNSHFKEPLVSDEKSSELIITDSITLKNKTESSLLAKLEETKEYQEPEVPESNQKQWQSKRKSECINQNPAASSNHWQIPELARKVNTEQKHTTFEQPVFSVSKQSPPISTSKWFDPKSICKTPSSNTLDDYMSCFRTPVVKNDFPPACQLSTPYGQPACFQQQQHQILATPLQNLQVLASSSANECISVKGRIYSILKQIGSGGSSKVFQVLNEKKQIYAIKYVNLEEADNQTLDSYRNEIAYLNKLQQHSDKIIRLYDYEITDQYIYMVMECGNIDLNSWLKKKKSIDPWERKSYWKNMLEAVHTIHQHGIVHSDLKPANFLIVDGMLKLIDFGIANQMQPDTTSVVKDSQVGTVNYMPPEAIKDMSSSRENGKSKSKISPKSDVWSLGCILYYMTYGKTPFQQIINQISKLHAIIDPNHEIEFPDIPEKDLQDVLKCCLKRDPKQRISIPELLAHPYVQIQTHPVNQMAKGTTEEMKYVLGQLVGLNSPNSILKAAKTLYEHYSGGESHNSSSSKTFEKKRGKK

IC50 (PIM1) | IC50 (PIM2) | SMILES | IC50 (MPS1)
 |  | CCc1cccc(CC)c1NC(=O)c1cc(-c2ccnc(Nc3ccc(N4CCN(C)CC4)cc3OC)n2)n(C)n1 [Compound 3, N-(2,6-diethylphenyl)-5-(2-{[2-methoxy-4-(4-methylpiperazin-1-yl)phenyl]amino}pyrimidin-4-yl)-1-methyl-1H-pyrazole-3-carboxamide] | < 200 nM
 |  | CCc1cccc(CC)c1NC(=O)c1cc(-c2ccnc(Nc3ccc(N4CCN(CCO)CC4)cc3OC)n2)n(C)n1 [Compound 8, N-(2,6-diethylphenyl)-5-[2-({4-[4-(2-hydroxyethyl)piperazin-1-yl]-2-methoxyphenyl}amino)pyrimidin-4-yl]-1-methyl-1H-pyrazole-3-carboxamide] | < 200 nM
 |  | CCc1cccc(CC)c1NC(=O)c1cc(-c2ccnc(Nc3ccc(N4CCN(C)CC4)cc3OC)n2)[nH]n1 [Compound 11, N-(2,6-diethylphenyl)-5-(2-{[2-methoxy-4-(4-methylpiperazin-1-yl)phenyl]amino}pyrimidin-4-yl)-1H-pyrazole-3-carboxamide] | < 200 nM
 |  | CCc1cccc(CC)c1NC(=O)c1cc(-c2ccnc(Nc3ccc(N4CCN(CCO)CC4)cc3OC)n2)[nH]n1 [Compound 13, N-(2,6-diethylphenyl)-5-[2-({4-[4-(2-hydroxyethyl)piperazin-1-yl]-2-methoxyphenyl}amino)pyrimidin-4-yl]-1H-pyrazole-3-carboxamide] | < 200 nM
< 10000 nM | < 10000 nM | CSc1nccc(-c2cc(C(N)=O)nn2C2CCNCC2)n1 [Compound 21, 5-[2-(methylsulfanyl)pyrimidin-4-yl]-1-(piperidin-4-yl)-1H-pyrazole-3-carboxamide hydrochloride] | 
